{"source": "patent US20030134863A1", "about": "“Preventives/remedies for alzheimer's disease” (priority 2000, published 2003)", "key": {"blood LH": {"tested_on": "blood LH", "assay": "Suppression of blood LH in castrated monkeys", "assay_type": "in vivo, cynomolgus monkeys (Macaca fascicularis)", "conditions": "castrated male cynomolgus monkeys", "description": "Suppression of blood LH in castrated monkeys\n5-(N-Benzyl-N-methylaminomethyl)-1-(2,6-difluorobenzyl)-6-[4-(3-methoxyureido)phenyl]-3-phenythieno[2,3-d]pyrimidine-2,4(1H,3H)-dione hydrochloride was orally administered to castrated male cynomolgus monkeys (Macaca fascicularis), and blood LH was quantified. The male cynomolgus monkeys, used at 4 years 9 months to 6 years 3 months of age at time of experimentation, had been castrated more than 3 months prior to the examination. Test animals [n=3] were given 30 mg/kg (3 ml/kg) of 5-(N-benzyl-N-methylaminomethyl)-1-(2,6-difluorobenzyl)-6-[4-(3-methoxyureido)phenyl]-3-phenylthieno[2,3-d]pyrimidine-2,4(1H,3H)-dione hydrochloride suspended in 0.5% methylcellulose at a final concentration of 1% by oral administration, and control test animals [n=2] were given 3 ml/kg of the 0.5% methylcellulose dispersant alone by oral administration. At 24 hours and immediately before administration and at 2, 4, 6, 8, 24, and 48 hours after administration, blood was collected for heparinized plasma samples via the femoral vein and immediately stored under freezing conditions.\nPlasma LH concentrations were determined by a bioassay using mouse testicular cells. The testicular cells were collected from male BALB/c mice (8 to 9 weeks of age) and washed three times with 1 ml of Dulbecco's modified Eagle medium (DMEM-H) containing 20 mM HEPES and 0.2% BSA per testis. After incubation at 37° C. for 1 hour, the cells were passed through a nylon mesh (70 μm) and dispensed at 8×10^5 cells/tube. After the cells were washed twice with 0.4 ml of DMEM-H, 0.4 ml of a DMEM-H solution containing either equine LH (Sigma), as the standard LH, or monkey plasma, finally diluted up to 300 fold, as the test sample, was added, followed by a reaction at 37° C. for 2 hours. The testosterone concentration in the culture supernatant was determined by a radioimmunoassay (CIS Diagnostics), and the LH concentration in the test monkey plasma was calculated from the standard curve for the standard equine LH. […]"}, "LH, FSH concentrations": {"tested_on": "LH, FSH concentrations", "conditions": "patients of Alzheimer's disease, clinical test; cited from earlier work"}}, "note": "Entries after “also recorded” stand apart in the source; their conditions may differ.", "data": [{"smiles": "CONC(=O)Nc1ccc(-c2sc3c(c2CN(C)Cc2ccccc2)c(=O)n(-c2ccccc2)c(=O)n3Cc2c(F)cccc2F)cc1.Cl", "note": "[5-(N-benzyl-N-methylaminomethyl)-1-(2,6-difluorobenzyl)-6-[4-(3-methoxyureido)phenyl]-3-phenylthieno[2,3-d]pyrimidine-2,4(1H,3H)-dione hydrochloride]", "values": [{"measurement": "blood LH concentration relative to the value immediately before administration", "setting": "blood LH; 30 mg/kg oral in 0.5% methylcellulose, in 24 hours after administration, n=3", "result": "≤ 20", "unit": "%"}, {"measurement": "blood LH concentration at 48 hours after administration", "setting": "blood LH; 30 mg/kg oral, 48 hours after administration", "result": "re-elevation of the blood LH concentration was noted"}, {"measurement": "effect on blood LH concentration (in words)", "setting": "blood LH; 30 mg/kg oral, hydrochloride, 30 mg/kg", "result": "rapid fall beginning immediately after administration; also recorded: significant decreasing effect on blood LH concentration"}]}, {"smiles": "CCNC(=O)[C@@H]1CCCN1C(=O)[C@H](CCCNC(=N)N)NC(=O)[C@H](CC(C)C)NC(=O)[C@@H](CC(C)C)NC(=O)[C@H](Cc1ccc(O)cc1)NC(=O)[C@H](CO)NC(=O)[C@H](Cc1c[nH]c2ccccc12)NC(=O)[C@H](Cc1c[nH]cn1)NC(=O)[C@@H]1CCC(=O)N1", "note": "[Leuplin]", "values": [{"measurement": "LH, FSH concentrations", "setting": "LH, FSH concentrations", "result": "lowers the LH, FSH concentrations"}, {"measurement": "progress of Alzheimer's disease", "setting": "LH, FSH concentrations", "result": "inhibits the progress of Alzheimer's disease"}]}]}
